Reference: patent publication US20040170959A1, “Methods for identifying antiviral oligonucleotides” (priority 2002, published 2004)

What was measured:
Hepatitis C virus (HCV) = conditions: prolonged therapy; cited from earlier work
Hep2 cells = conditions: uninfected cells treated 7 days
[1] = human, in vivo; cited from earlier work

interferon alpha
share of patients in whom therapy is effective (Hepatitis C virus (HCV)): about 40% of patients

NC(=O)c1ncn([C@@H]2O[C@H](CO)[C@@H](O)[C@H]2O)n1 [Ribavirin]
toxicity in Hep2 cells (Hep2 cells): significantly toxic

O=c1[nH]c(=O)n([C@H]2C[C@H](O)[C@@H](CO)O2)cc1I [idoxuridine]
allergic reactions, share of patients treated [1]: 35%

Nc1nc(O)c2ncn(COC(CO)CO)c2n1 [ganciclovir]
neutropenia and thrombocytopenia, share of patients treated [1]: 40%
